Series [1] has as its target T1, rat μ opioid receptors (rMOR) (Rattus norvegicus, UniProt P33535).
T1 construct: expressed in transfected cells; host or cells: HN9.10 neuroblastoma cell line, pCDNA3, neomycin-selected clones
Put plainly: Radioligand competition binding, [3H]DAMGO, rMOR membranes. For orientation: Loss of bound radioactivity is the signal in a displacement assay; it reports binding, not function.

The target in series [2] is T2, human NK1 receptor (hNK1) (Homo sapiens, UniProt P25103).
T2 construct: expressed in transfected cells
Briefly: Radioligand competition binding, [3H]-Substance P, hNK1.

Series [3] has as its target T3, Substance P receptors (guinea pig NK1) (Cavia porcellus, UniProt P30547).
T3 construct: from tissue; host or cells: guinea pig (Hartley) ileum LMMP, 1 μM naloxone present
Briefly: Guinea pig isolated ileum (GPI) assay with substance P stimulation in presence of 1 μM naloxone. The conditions noted are these: for GPI/LMMP SP Agonist (IC50; nM): Table 39, at 30 nM.

The target in series [4] is T4, δ opioid receptors (MVD) (Mus musculus, UniProt P32300).
T4 construct: from tissue; host or cells: mouse (ICR) isolated vas deferens
Put plainly: Mouse isolated vas deferens (MVD) assay, opioid agonist.

The nature of series [5]: In vitro stability in rat plasma at 37° C. Format: in vitro ADME. Particulars: for stability in the rat plasma: words; for half-life at 50 μg/mL: rat, rat plasma, FIG. 47, read-out: T1/2 in rat plasma. The method, then:
The derivative compounds were tested for their metabolite stability. The compounds were incubated in rat plasma at 37° C., and aliquots were withdrawn at various time points and analyzed by HPLC to determine the concentration of remaining compound derivatives (FIGS. 15-16, 36, and 47-48).
In Vitro Stability of compound derivatives in Rat Plasm (Yamamoto, 2007, J. Am. Chem. Soc. submitted). Stock solution of compounds (50 mg/mL in DMSO) were diluted 1000-fold into rat plasma (Lot 24927, Pel-Freez Biologicals, Rogers, Ak.) to result in an incubation concentration of 50 μg/mL. All samples were incubated at 37° C. for 6 h, and 200 μL of aliquots were withdrawn at 1 h, 2 h, 4 h and 6 h. […] The samples were run in triplicate. Discussion.

The subject of series [6] is μ opioid receptors (GPI). Put plainly: Guinea pig isolated ileum (GPI) assay, opioid agonist.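 Further: inhibition of electrically evoked contractions (0.1 Hz, 0.4 msec, supramaximal voltage) in organ baths at 37 °C, contraction height 3 min after each cumulative dose versus the 1 min before dosing.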
Series [7] deals with T5, human δ opioid receptors (hDOR) (Homo sapiens, UniProt P41143).
T5 construct: expressed in transfected cells; host or cells: HN9.10 neuroblastoma cell line, pCDNA3, neomycin-selected clones
Put plainly: Radioligand competition binding, [3H]DPDPE, hDOR membranes.

Series [8] has as its target T6, rat NK1 (rNK1) receptor (Rattus norvegicus, UniProt P14600).
T6 construct: expressed in transfected cells; host or cells: CHO (rNK-1/CHO cell line from Dr. James Krause)
Put plainly: Radioligand competition binding, [3H]substance P, rNK1/CHO membranes.

Series [9] has as its target T1, rat μ opioid receptors (rMOR). Put plainly: biochemical. It is filed as biochemical.
In series [10] the target is T5, human δ opioid receptors (hDOR). Put plainly: [35S]GTP-γ-S binding assay, hDOR. It is filed as biochemical. A general note: GTPγS resists hydrolysis and so accumulates on activated G proteins.
Where [11] appears, read: Table 39, read-out: GTP binding rMOR EC50.
[12] abbreviates: Table 39, read-out: GTP binding rMOR Emax.
[13] abbreviates: Affinity rNK1 (Ki; nM), Table 23.

The structures appear in SMILES notation. Where two headings read alike, the source gives them in different places. Bridge positions count the residues as written; N and C are the ends. Square brackets hold non-standard residues; d marks the D form. Peptide text beside a SMILES is read from it. * marks the point of attachment. NH(3,5-(CF3)2-benzyl) = FC(F)(F)c1cc(CN*)cc(C(F)(F)F)c1; X1 = OC[C@H]1OC(*)[C@H](O)[C@@H](O)[C@@H]1O; Dmt = Cc1cc(O)cc(C)c1C[C@H](N)C(=O)O; dPen = CC(C)(S)[C@@H](N)C(=O)O; Nle = CCCC[C@H](N)C(=O)O

T4 sequence (P32300 whole entry): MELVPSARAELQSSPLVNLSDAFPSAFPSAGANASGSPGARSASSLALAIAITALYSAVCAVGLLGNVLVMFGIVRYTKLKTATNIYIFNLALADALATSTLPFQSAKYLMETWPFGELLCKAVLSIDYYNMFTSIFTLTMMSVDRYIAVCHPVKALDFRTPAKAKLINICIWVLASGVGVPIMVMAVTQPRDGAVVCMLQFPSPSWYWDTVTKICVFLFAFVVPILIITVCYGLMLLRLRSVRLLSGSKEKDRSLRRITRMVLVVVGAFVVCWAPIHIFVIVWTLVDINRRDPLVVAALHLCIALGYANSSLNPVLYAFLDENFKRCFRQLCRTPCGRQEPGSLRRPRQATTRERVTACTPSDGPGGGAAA
T3 sequence (P30547 whole entry): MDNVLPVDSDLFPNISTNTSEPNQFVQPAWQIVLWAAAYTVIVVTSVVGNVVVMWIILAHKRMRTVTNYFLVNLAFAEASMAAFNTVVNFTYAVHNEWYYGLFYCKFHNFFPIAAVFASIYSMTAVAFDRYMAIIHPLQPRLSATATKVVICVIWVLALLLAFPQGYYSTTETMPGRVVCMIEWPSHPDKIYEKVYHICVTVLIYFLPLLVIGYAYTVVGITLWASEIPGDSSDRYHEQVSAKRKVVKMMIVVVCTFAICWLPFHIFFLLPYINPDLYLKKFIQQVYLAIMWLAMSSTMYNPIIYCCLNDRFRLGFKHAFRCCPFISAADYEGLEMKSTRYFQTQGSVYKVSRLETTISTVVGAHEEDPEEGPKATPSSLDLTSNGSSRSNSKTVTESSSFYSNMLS
T1 sequence (P33535 whole entry): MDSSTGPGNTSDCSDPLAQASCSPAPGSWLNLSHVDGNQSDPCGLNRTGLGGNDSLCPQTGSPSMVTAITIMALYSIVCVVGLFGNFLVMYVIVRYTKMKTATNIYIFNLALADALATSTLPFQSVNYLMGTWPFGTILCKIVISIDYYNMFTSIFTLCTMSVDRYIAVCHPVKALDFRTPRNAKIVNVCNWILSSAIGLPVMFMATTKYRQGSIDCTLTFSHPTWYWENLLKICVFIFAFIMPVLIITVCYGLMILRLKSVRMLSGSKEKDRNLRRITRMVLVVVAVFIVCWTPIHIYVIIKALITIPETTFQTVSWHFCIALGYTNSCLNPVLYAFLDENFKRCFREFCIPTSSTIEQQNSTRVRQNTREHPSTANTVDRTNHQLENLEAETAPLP
T6 sequence (P14600 whole entry): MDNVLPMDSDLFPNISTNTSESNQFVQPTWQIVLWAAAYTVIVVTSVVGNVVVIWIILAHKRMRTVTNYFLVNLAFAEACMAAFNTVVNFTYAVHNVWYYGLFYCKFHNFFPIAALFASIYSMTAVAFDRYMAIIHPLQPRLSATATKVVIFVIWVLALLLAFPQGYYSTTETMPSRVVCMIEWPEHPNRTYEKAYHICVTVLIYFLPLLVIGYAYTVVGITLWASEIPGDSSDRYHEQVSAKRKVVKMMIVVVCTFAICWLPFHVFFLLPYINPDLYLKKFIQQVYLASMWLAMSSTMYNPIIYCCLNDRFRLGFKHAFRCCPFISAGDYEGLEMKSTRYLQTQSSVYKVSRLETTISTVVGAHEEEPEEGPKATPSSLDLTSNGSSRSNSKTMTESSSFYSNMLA
T5 sequence (P41143 whole entry): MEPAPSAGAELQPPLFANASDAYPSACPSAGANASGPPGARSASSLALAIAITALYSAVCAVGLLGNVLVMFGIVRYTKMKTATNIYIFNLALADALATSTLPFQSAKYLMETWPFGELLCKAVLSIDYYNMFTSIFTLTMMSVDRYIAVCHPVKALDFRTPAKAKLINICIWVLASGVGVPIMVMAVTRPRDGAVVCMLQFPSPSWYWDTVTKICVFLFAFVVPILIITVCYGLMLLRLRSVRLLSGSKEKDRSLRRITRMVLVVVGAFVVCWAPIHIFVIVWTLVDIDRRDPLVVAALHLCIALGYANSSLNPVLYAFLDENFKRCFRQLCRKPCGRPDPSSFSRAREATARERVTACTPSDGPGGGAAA
T2 sequence (P25103 whole entry): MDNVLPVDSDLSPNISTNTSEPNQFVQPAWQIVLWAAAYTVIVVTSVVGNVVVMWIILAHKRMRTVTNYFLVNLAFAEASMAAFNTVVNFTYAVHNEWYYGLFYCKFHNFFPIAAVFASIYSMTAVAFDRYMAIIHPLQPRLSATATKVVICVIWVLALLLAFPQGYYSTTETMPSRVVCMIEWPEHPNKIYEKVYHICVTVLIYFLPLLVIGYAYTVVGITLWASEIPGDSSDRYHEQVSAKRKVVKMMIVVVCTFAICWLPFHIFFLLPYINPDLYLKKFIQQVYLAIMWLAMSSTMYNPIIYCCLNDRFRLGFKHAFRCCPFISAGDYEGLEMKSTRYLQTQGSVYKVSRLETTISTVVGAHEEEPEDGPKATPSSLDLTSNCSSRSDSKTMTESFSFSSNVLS

The term Ki denotes a measure of affinity in units of concentration, obtained from inhibition or displacement. Turning to `CCCC[C@H](NC(=O)[C@H](Cc1ccccc1)NC(=O)CNC(=O)[C@@H](C)NC(=O)[C@@H](N)Cc1ccc(O)cc1)C(=O)N1CCC[C@H]1C(=O)N[C@@H](CC(C)C)C(=O)N[C@@H](COC1O[C@H](CO)[C@@H](O)[C@H](O)[C@H]1O)C(=O)N[C@@H](Cc1c[nH]c2ccccc12)C(=O)NCc1cc(C(F)(F)F)cc(C(F)(F)F)c1` (some centres unmarked) [TY055], the inhibition constant Ki in [1] was determined as 30 nM; in series [2], 0.052 nM. Further, in series [3], the “GPI/LMMP SP Agonist (IC50; nM)” value is “none”. This compound showed an IC50 in series [4] of 17.4 nM. For the same compound, in series [5], the “stability in the rat plasma” value is reported as “stable”.

By EC50 is commonly meant the concentration at which the effect is half-maximal. As usually defined, the Emax is the greatest response seen or fitted, relative to the assay's reference. A word on the Kb: it is the equilibrium dissociation constant of an antagonist, usually derived from a functional assay. On to `CC(C)C[C@H](NC(=O)[C@@H]1CCCN1C(=O)CNC(=O)[C@H](Cc1ccccc1)NC(=O)CNC(=O)[C@@H](C)NC(=O)[C@@H](N)Cc1ccc(O)cc1)C(=O)N[C@@H](Cc1c[nH]c2ccccc12)C(=O)OCc1cc(C(F)(F)F)cc(C(F)(F)F)c1` [TY006, H-Tyr-D-Ala-Gly-Phe-Gly-Pro-Leu-Trp-O-3,5-Bzl(CF3)2] (HELM PEPTIDE1{Y.[dA].G.F.G.P.L.W.[FC(F)(F)c1cc(CO[*:1])cc(C(F)(F)F)c1]}$$$$V2.0), for which the IC50 in [6] (Table 28, read-out: GPI/LMMP Opioid(m) Agonist (IC50; nM)) stood at 384 nM; in series [6] (Table 39, read-out: GPI/LMMP opioid(mu) agonist (IC50; nM)), 384 nM; in series [6] (electrically stimulated isolated tissue, read-out: GPI (μ), IC50), 384 nM; in series [8] (IC50, rNK1, Substance P radioligand, membranes from transfected CHO cells), 15.6 nM; in series [3], 5.4 nM; in series [4], 172 ± 26 nM. Moreover, the IC50 in series [4] (Table 28, read-out: MVD Opioid (d) Agonist (IC50; nM)) stood at 172 nM; in [4] (Table 39, read-out: MVD opioid(delta) agonist (IC50; nM)), 172 nM; in series [4] (electrically stimulated isolated tissue, read-out: MVD (δ), IC50), 171 nM. In addition, the Ki in series [7] (Table 27, read-out: Affinity hDOR (Ki; nM)) came to 36.1 nM; in series [7] (Table 39, read-out: Affinity hDOR (Ki; nM)), 36.1 nM; in series [7] (read-out: Ki, hDOR, [3H]DPDPE), 36.1 nM; in series [1] (Table 27, read-out: Affinity rMOR (Ki; nM)), 27 nM; in series [1] (Table 39, read-out: Affinity rMOR (Ki; nM)) it was 27 nM; in series [1] (read-out: Ki, rMOR, [3H]DAMGO), 27 nM. Also, the affinity in [2], expressed as Ki, was 0.016 nM. In addition, the “LogIC50, rMOR, [3H]DAMGO” value in [1] (membranes from transfected HN9.10 cells) was −7.24 ± 0.15. The “LogEC50, rMOR, [35S]GTP-γ-S binding” value in series [9] is listed as −7.38 ± 0.20. The EC50 in series [9] (Table 27, read-out: GTP binding rMOR EC50) amounted to 41.7 nM; in [9] (setting [11]), 41.7 nM; in series [9] (read-out: EC50, rMOR, [35S]GTP-γ-S binding), 41.7 nM; in series [10] (Table 27, read-out: GTP binding hDOR EC50) it was 50.2 nM; in series [10] (Table 39, read-out: GTP binding hDOR EC50) it was 50.2 nM; in series [10] (read-out: EC50, hDOR, [35S]GTP-γ-S binding), 50.2 nM. Besides, the Emax in series [9] (Table 27, read-out: GTP binding rMOR Emax (%)) is 35.9%; in series [9] (setting [12]) it was 35.9%; in [9] (net total bound/basal binding × 100, read-out: Emax, rMOR, [35S]GTP-γ-S binding), 39%; in series [10] (Table 27, read-out: GTP binding hDOR Emax (%)), 33.6%; in series [10] (Table 39, read-out: GTP binding hDOR Emax), 33.6%; in [10] (net total bound/basal binding × 100, read-out: Emax, hDOR, [35S]GTP-γ-S binding), 35%. In series [3] (Substance P antagonist, GPI, Ke, in the presence of 1 μM naloxone), the Kb is 5.4 ± 1.4 nM. For the same compound, in [3] (read-out: Substance P GPI agonist (A50), at 1 μM, contraction relative to initial muscle contraction with KCl), the activation at 1 µM was 0%. Further, the “LogEC50, hDOR, [35S]GTP-γ-S binding” value in [10] is given as −7.30 ± 0.24.

In the case of `CCCC[C@@H]1NC(=O)[C@H](Cc2ccccc2)NC(=O)CNC(=O)[C@H](NC(=O)[C@@H](N)Cc2ccc(O)cc2)C(C)(C)SSC(C)(C)[C@H](C(=O)N[C@@H](Cc2c[nH]c3ccccc23)C(=O)NCc2cc(C(F)(F)F)cc(C(F)(F)F)c2)NC(=O)[C@@H]2CCCN2C1=O` [TY048] (H-Y[dPen]GF[Nle]P[dPen]W-{NH(3,5-(CF3)2-benzyl)}; disulfide 2-7; N-terminus assumed), the Ki in series [8] (Table 23, read-out: Affinity rNK1 (Ki; nM)) came to 26 nM. Also, in [9] (setting [12]), the Emax came to 29%. For the same compound, the half-life at 50 μg/mL in [5] was above 1440 min.

Turning to `CCCC[C@H](NC(=O)[C@H](Cc1ccccc1)NC(=O)CNC(=O)[C@@H](C)NC(=O)[C@@H](N)Cc1c(C)cc(O)cc1C)C(=O)N1CCC[C@H]1C(=O)N[C@@H](COC1O[C@H](CO)[C@@H](O)[C@H](O)[C@H]1O)C(=O)N[C@@H](Cc1c[nH]c2ccccc12)C(=O)NCc1cc(C(F)(F)F)cc(C(F)(F)F)c1` (some centres unmarked) [TY056] (H-[Dmt][dA]GF[Nle]PS(X1)W-{NH(3,5-(CF3)2-benzyl)}; N-terminus assumed), the Ki in [1] worked out at 1.9 nM; in series [2], 0.0017 nM; in [8] (Affinity rNK1 (Ki; nM), Table 25) it was 10 nM. In addition, the EC50 in series [9] (Table 25, read-out: GTP binding rMOR EC50) was 44.9 nM. In addition, the Emax in [9] (Table 25, read-out: GTP binding rMOR Emax (%)) stood at 66%; in [9] (setting [12]), 66%. Besides, the “GPI/LMMP SP Agonist (IC50; nM)” value in series [3] is on record as “none”. The IC50 in series [4] worked out at 3.62 nM. Also, the “stability in the rat plasma” value in [5] is recorded as “stable”.

As to `CC(C)C[C@H](NC(=O)[C@@H]1CCCN1C(=O)[C@@H]1NC(=O)[C@H](Cc2ccccc2)NC(=O)CNC(=O)[C@H](NC(=O)[C@@H](N)Cc2ccc(O)cc2)C(C)(C)SSC1(C)C)C(=O)N[C@@H](Cc1c[nH]c2ccccc12)C(=O)NCc1cc(C(F)(F)F)cc(C(F)(F)F)c1` [TY049], the Ki was determined as 0.18 nM in series [2] and 4.54 nM in series [8] (setting [13]). In addition, in [9] (read-out: GTP binding rMOR Emax), the Emax stood at 25%. Besides, the half-life at 50 μg/mL in series [5] was above 1440 min.

`C[C@@H](NC(=O)[C@@H](N)Cc1ccc(O)cc1)C(=O)N[C@@H](Cc1c[nH]c2ccccc12)C(=O)OCc1cc(C(F)(F)F)cc(C(F)(F)F)c1` [NP43]: the “GPI μ-agonist, % at 1 μM” value in series [6] (Table 36, at 1 μM) amounted to 3.3% at 1 μM. Further, the Ki came to 100 nM in series [7] (Table 33, read-out: Ki (nM) hDOR); 178 nM in series [1] (Table 33, read-out: Ki (nM) rMOR); 0.004 nM in series [2]; 2.94 nM in series [8] (Ki (nM) rNK1, Table 33). The EC50 in series [9] (Table 33, read-out: GTP EC50 (nM) rMOR) was found to be 168 nM; in series [10] (Table 33, read-out: GTP EC50 (nM) hDOR), 90.9 nM. In addition, in [3] (GPI SP-antagonist Ke (nM), Table 36), the Kb came to 49.4 nM. Also, the “MVD δ-agonist, % at 1 μM” value in series [4] (Table 36, at 1 μM) amounted to 5.5% at 1 μM.

`CCCC[C@@H]1NC(=O)[C@H](Cc2ccccc2)NC(=O)CNC(=O)[C@H](NC(=O)[C@@H](N)Cc2ccc(O)cc2)C(C)(C)SSC(C)(C)[C@@H](C(=O)N[C@@H](Cc2c[nH]c3ccccc23)C(=O)NCc2cc(C(F)(F)F)cc(C(F)(F)F)c2)NC(=O)[C@@H]2CCCN2C1=O` [TY047] (HELM PEPTIDE1{Y.[CC(C)(S[*:3])[C@@H](N[*:1])C(=O)[*:2]].G.F.[Nle].P.[Pen].W.[FC(F)(F)c1cc(CN[*:1])cc(C(F)(F)F)c1]}$PEPTIDE1,PEPTIDE1,2:R3-7:R3$$$V2.0; N-terminus assumed): the figures for the Ki in series [7], in series [1] and in series [8] (setting [13]) were 152 nM, 1970 nM and 163 nM, respectively. For the same compound, in series [9] (setting [11]), the EC50 worked out at 2910 nM. In addition, the half-life at 50 μg/mL in series [5] is above 1440 min.

Source of the values: patent US8026218B2, “Bifunctional analgesic compounds for opioid receptor agonists and neurokinin-1 receptor antagonists” (The University of Arizona, priority 2006, dated 2011).
